Assay results: patent US20230159510A1, “NOVEL PRMT5 INHIBITORS” (AMGEN INC., priority 2020, published 2023)

Tests used:
[1] = system: HCT116 MTAP null cells; test: HCT116 proliferation assay, MTAP null cells (CellTiter-Glo, 6 days); type: cell-based; settings: HCT116-MTAP null, 144 h, read-out: Protif_ HCT116-MTAP null IC50
Outline: (§1)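 Seed cells in RPMI 1640 supplemented with 10% FBS and incubate overnight at 37° C under 5% CO2. Treat with serially diluted compound (threefold steps, 8 or 9 points, highest 1 or 10 µM) or DMSO alone, then quantify viability by luminescence.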

[2] = molecular target: PRMT5/MEP50 (Homo sapiens, UniProt O14744); test: MTase-Glo methyl transferase assay, Method A (Histone H4 peptide, 1 µM MTA, 24 h pre-incubation); type: biochemical; parameters: made in house; settings: read-out: PRMT5 MTase Glo Ki (nM, Meth. A)
Outline: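 Luminescent SAH detection (MTase-Glo) after a 2 h room-temperature methylation of 1 µM biotinylated H4 (1-21) peptide by 10 nM PRMT5/MEP50 with 5 µM SAM, in 50 mM Tris pH 8.0.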

[3] = system: HCT116 WT cells; test: HCT116 proliferation assay, WT cells (CellTiter-Glo, 6 days); type: cell-based; settings: Homo sapiens, HCT-116, 144 h, read-out: Prolif_HCT116-WT IC50
Outline: as §1

PRMT5/MEP50, sequence (O14744 whole entry): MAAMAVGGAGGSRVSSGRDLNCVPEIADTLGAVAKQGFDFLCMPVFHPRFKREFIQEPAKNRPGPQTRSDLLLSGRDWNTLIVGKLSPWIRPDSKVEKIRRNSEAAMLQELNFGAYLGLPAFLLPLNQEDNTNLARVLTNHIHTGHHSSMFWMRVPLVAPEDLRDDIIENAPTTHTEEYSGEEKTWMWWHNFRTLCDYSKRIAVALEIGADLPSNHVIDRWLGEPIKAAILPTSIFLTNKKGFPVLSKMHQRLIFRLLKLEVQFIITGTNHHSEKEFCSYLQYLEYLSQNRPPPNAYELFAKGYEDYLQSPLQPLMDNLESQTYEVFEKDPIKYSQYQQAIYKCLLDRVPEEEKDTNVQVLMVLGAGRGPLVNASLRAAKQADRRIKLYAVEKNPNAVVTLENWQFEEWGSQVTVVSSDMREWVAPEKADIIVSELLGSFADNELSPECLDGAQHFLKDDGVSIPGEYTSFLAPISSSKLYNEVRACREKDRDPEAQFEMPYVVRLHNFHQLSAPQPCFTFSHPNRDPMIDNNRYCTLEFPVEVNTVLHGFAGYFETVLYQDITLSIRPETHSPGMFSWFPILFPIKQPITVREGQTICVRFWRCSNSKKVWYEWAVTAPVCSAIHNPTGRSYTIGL
PRMT5/MEP50, sequence (Q9BQA1 whole entry partner): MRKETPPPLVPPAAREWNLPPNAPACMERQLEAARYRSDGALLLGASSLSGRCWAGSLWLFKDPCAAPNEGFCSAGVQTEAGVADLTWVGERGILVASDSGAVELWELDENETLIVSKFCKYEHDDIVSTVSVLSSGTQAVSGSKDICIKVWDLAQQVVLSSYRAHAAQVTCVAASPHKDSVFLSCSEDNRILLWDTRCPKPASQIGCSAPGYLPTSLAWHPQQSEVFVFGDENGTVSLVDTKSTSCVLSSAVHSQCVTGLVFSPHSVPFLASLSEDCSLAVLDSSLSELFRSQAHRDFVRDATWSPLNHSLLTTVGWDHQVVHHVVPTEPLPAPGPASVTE

| Structure (SMILES) | IC50 [1] [nM] | Ki [2] [nM] | IC50 [3] [µM] |
| --- | --- | --- | --- |
| C[C@H](c1ncccc1F)N(Cc1ccc(C#N)cn1)C(=O)c1ccc2nc(N)c(Br)cc2c1 [Example 352, 2-amino-3-bromo-N-((5-cyano-2-pyridinyl)methyl)-N-((1R)-1-(3-fluoro-2-pyridinyl)ethyl)-6-quinolinecarboxamide] | 200 | 0.14 | 8.09 |
| Cc1cc2cc(C(=O)N(Cc3ccc(C#N)cn3)[C@H](C)c3ncccc3F)c(F)cc2nc1N [Example 353, 2-amino-N-((5-cyano-2-pyridinyl)methyl)-7-fluoro-N-((1R)-1-(3-fluoro-2-pyridinyl)ethyl)-3-methyl-6-quinolinecarboxamide] | 73 | 0.02 | 1.51 |
| C[C@H](c1ncccc1F)N(Cc1ccc(C#N)cn1)C(=O)c1cnc2nc(N)c(Br)cc2c1 [Example 354, 7-amino-6-bromo-N-((5-cyano-2-pyridinyl)methyl)-N-((1R)-1-(3-fluoro-2-pyridinyl)ethyl)-1,8-naphthyridine-3-carboxamide] | 378 | 0.29 | > 10 |
| Cc1cc2cc(C(=O)N(Cc3ccc(C(N)=O)cc3)Cc3ccc(C(F)(F)F)cn3)ccc2nc1N [Example 355, 2-amino-N-(4-carbamoylbenzyl)-3-methyl-N-((5-(trifluoromethyl)-2-pyridinyl)methyl)-6-quinolinecarboxamide] | 159 | 0.2 | 3.35 |
| Cc1cc2cc(C(=O)N(Cc3ccc(C(F)(F)F)cn3)Cc3ccnc4[nH]ccc34)ccc2nc1N [Example 356, 2-amino-3-methyl-N-(1H-pyrrolo[2,3-b]pyridin-4-ylmethyl)-N-((5-(trifluoromethyl)-2-pyridinyl)methyl)-6-quinolinecarboxamide] | 35 | 0.02 | 0.801 |
| Cc1cc2cc(C(=O)N(Cc3ccc(Br)cn3)CC(C)C)ccc2nc1N [Example 357, 2-amino-N-((5-bromo-2-pyridinyl)methyl)-3-methyl-N-(2-methylpropyl)-6-quinolinecarboxamide] | 385 | 4.34 | 7.05 |
| Cc1cc2cc(C(=O)N(Cc3ccc(N4CCC(F)(F)C4)cn3)[C@H](C)c3ncccn3)ccc2nc1N [Example 358, 2-amino-N-((5-(3,3-difluoro-1-pyrrolidinyl)-2-pyridinyl)methyl)-3-methyl-N-((1R)-1-(2-pyrimidinyl)ethyl)-6-quinolinecarboxamide] | 53 | 2.5 | 1.37 |

Now from value to molecule:

| IC50 [1] [nM] | Ki [2] [nM] | IC50 [3] [µM] | Structure (SMILES) |
| --- | --- | --- | --- |
| 208 | < 0.1 | 4.74 | Cc1cc2cc(C(=O)N(Cc3ccc(N4CC(F)(F)C4)cn3)[C@H](C)c3ncccn3)ccc2nc1N [Example 359, 2-amino-N-((5-(3,3-difluoro-1-azetidinyl)-2-pyridinyl)methyl)-3-methyl-N-((1R)-1-(2-pyrimidinyl)ethyl)-6-quinolinecarboxamide] |
| 199 | 0.08 | 4.81 | Cc1cc2cc(C(=O)N(Cc3ccc(C(F)(F)F)cn3)[C@H](C)c3ccc(F)cc3)ccc2nc1N [Example 360, 2-amino-N-((1R)-1-(4-fluorophenyl)ethyl)-3-methyl-N-((5-(trifluoromethyl)-2-pyridinyl)methyl)-6-quinolinecarboxamide] |
| 116 | 2.1 | 3.22 | Cc1cc2cc(C(=O)N(Cc3ccc(C(F)(F)F)cn3)[C@@H]3CCCC[C@H]3O)ccc2nc1N [Example 361, 2-amino-N-((1R,2R)-2-hydroxycyclohexyl)-3-methyl-N-((5-(trifluoromethyl)-2-pyridinyl)methyl)-6-quinolinecarboxamide] |
| 106 | 0.11 | 2.46 | Cc1cc2cc(C(=O)N(Cc3ccc(C(F)(F)F)cn3)[C@@H]3CCC[C@H]3O)ccc2nc1N [Example 362, 2-amino-N-((1R,2R)-2-hydroxycyclopentyl)-3-methyl-N-((5-(trifluoromethyl)-2-pyridinyl)methyl)-6-quinolinecarboxamide] |
